According to publication PMC8490515, “Neuromedin B receptor stimulation of Cav3.2 T-type Ca^2+ channels in primary sensory neurons mediates peripheral pain hypersensitivity” (Theranostics, 2021):
Ends that are not written are not given here.

Key:
T-type channels = details: cited from earlier work; for IT inhibition: dopamine in retinal horizontal cells, adrenaline in newt olfactory receptor cells, prevented by PKA inhibitors, ref [56]; for current density of IT: via PKC, insulin-like growth factor in dorsal root ganglion neurons, angiotensin-II in neonatal cardiomyocytes, ref [28], [60]
Source text: In contrast, stimulation of PKC either by insulin-like growth factor in dorsal root ganglion neurons or by angiote ...

[1] = test system: T-type channels in small TG neurons; test: Whole-cell patch clamp of T-type channel currents (IT) in small TG neurons; assay type: cell-based, mouse; details: for inhibition of IT: 0.5 mM
small TG neurons = test: TG neuronal excitability (action potential firing, rheobase, threshold); assay type: cell-based, mouse
Experimental: All the procedures performed in this study were carried out in accordance with NIH guidelines and were approved by the Institutional Animal Care and Use Committee of Soochow University. TG neurons were dissociated as previously described, [23]. Briefly, TGs were harvested from 8- to 10-week-old ICR mice of either sex, cut into small pieces and treated with 2 mg/mL collagenase D (Roche) for 20 min followed by 1.5 mg/mL trypsin (Sigma) at 37 °C for 15 min. Cells were dissociated via gentle trituration with fire-polished sterilized Pasteur pipettes and centrifuged through a 15% BSA gradient to remove debris and nonneuronal cells. TG neurons were resuspended in neurobasal A (Thermo Fisher) supplemented with B27 (Thermo Fisher) and transferred onto Matrigel-coated coverslips. Patch clamp recordings were conducted 2 to 6 h after plating. In shRNA-treated knockdown experiments, TG cells were replated onto coverslips 48 h after infection.
(§1) Standard whole-cell recordings were made at room temperature (22-23 °C) as described previously, [25]. Recording electrodes were pulled from borosilicate glass microcapillary tubes (Sutter Instruments) and had resistances from 3 to 5 MΩ when filled with internal solution. Recordings were obtained using a MultiClamp 700B amplifier (Axon Instruments). Data were digitized on a personal computer using a Digidata 1440 interface under the control of the pClamp10.2 acquisition package (Molecular Devices). Data were acquired at 20 kHz with a low-pass Bessel filter at 2-5 kHz. Series resistance was compensated to 80%. The internal solution used for T-type channel current recordings contained 110 mM CsCl, 4 mM Mg-ATP, 0.3 mM Na2-GTP, 25 mM HEPES, and 10 mM EGTA, adjusted to pH 7.4 with CsOH; 295 mOsm. The external solution used for T-type channel current recordings contained 5 mM BaCl2, 140 mM TEA-Cl, 10 mM HEPES, 0.5 mM MgCl2, 5 mM CsCl, and 5.5 mM glucose, adjusted to pH 7.35 with TEA-OH; 305 mOsm. In experiments for Kv current recordings, the extracellular solution contained 140 mM choline-Cl, 1 mM MgCl2, 0.03 mM CaCl2, 5 mM KCl, 10 mM HEPES, and 10 mM glucose, adjusted to pH 7.4 with KOH; 310 mOsm. The intracellular pipette solution contained 140 mM KCl, 1 mM MgCl2, 0.5 mM CaCl2, 3 mM Mg-ATP, 0.3 mM Na2-GTP, 10 mM HEPES, and 5 mM EGTA, adjusted to pH 7.4 with KOH; 295 mOsm. The two kinetically distinct Kv currents in small TG neurons were separated by the two-step voltage protocol as previously described, [26]. The external solution for Nav current clamp recordings contained 2 mM KCl, 2 mM MgCl2, 25 mM HEPES, 2 mM CaCl2, 128 mM NaCl, and 30 mM glucose, adjusted to pH 7.4 with NaOH; 305 mOsm. The internal solution contained 10 mM NaCl, 110 mM KCl, 4 mM Mg-ATP, 0.3 mM Na2-GTP, 25 mM HEPES, and 2 mM EGTA, adjusted to pH 7.3 with KOH; 295 mOsm. Nmb was applied to a patched cell by an air-pressure microinjector (Pneumatic PicoPump, model PV830, WPI).
We next determined the role of the Nmb-induced T-type channel response in regulating TG neuronal excitability. […] Furthermore, application of Nmb (100 nM) to TG neurons decreased the peak amplitude of the transient outward K^+ channel currents (A-type currents or IA) (decrease of 22.3 ± 3.9%; Figure 6C), while the sustained delayed rectifier K^+ channel currents (IDR) remained unaffected (decrease of 1.9 ± 1.6%; Figure 6C). […] To further test this hypothesis, a shorter (1 ms) current injection was applied to avoid contaminating the action potential waveform with the stimulus. Neurons were manually hyperpolarized to membrane potentials of -75 mV to maximize the number of T-type channels available for activation. With increasingly stronger current injections (+200 pA), the threshold current necessary to evoke an overshooting AP was determined for each neuron in the presence or absence of Nmb.

Cav3.2 (α1H) = test: Cav3.2 channel currents in HEK293 cells coexpressing NmbR; assay type: cell-based, human
Experimental: as §1, with “mOsm.” for “mOsm. The two kinetically distinct Kv currents in small TG neurons were separated by the two-step voltage protocol as previously described, [26]. The external solution for Nav current clamp recordings contained 2 mM KCl, 2 mM MgCl2, 25 mM HEPES, 2 mM CaCl2, 128 mM NaCl, and 30 mM glucose, adjusted to pH 7.4 with NaOH; 305 mOsm. The internal solution contained 10 mM NaCl, 110 mM KCl, 4 mM Mg-ATP, 0.3 mM Na2-GTP, 25 mM HEPES, and 2 mM EGTA, adjusted to pH 7.3 with KOH; 295 mOsm. Nmb was applied to a patched cell by an air-pressure microinjector (Pneumatic PicoPump, model PV830, WPI).”

PKA = PKA activity assay in TG cells (Pep Tag); assay type: cell-based, mouse; details: pretreatment 10 µM compound C, 100 nM Nmb 30 min
Experimental: PKA enzymatic activity in cell lysates was measured using the Pep Tag assay for nonradioactive detection of PKA (Promega, Madison, WI, USA) as described in our previous studies. Briefly, TG cells were cultured in 12-well plates and preincubated with BIM23042 (0.5 μM) or compound C (10 μM) followed by exposure to 100 nM Nmb for 30 min. TG cells were washed with ice-cold phosphate-buffered saline and placed on ice. PKA was extracted from the cell lysates with cold PKA extraction buffer (25 mM Tris-HCl, pH 7.4, 0.5 mM EDTA, 0.5 mM EGTA, 10 mM β-mercaptoethanol, 1 μg/mL leupeptin and 1 μg/mL aprotinin). The assay was conducted according to the manufacturer's instructions.

## CNC[C@H](O)c1ccc(O)c(O)c1 [adrenaline]
T-type channels
  IT inhibition: IT inhibition

## SKEEKSDKER WQHLADLADFALAMKDT [the scrambled peptide of QEHA]
[1]; intracellular 10 μM SKEE, 100 nM Nmb, n = 7
  Nmb-induced increase in IT with SKEE: 33.2 ± 3.5%

## C=C[C@@]1(C)CC(=O)[C@]2(O)[C@@]3(C)[C@@H](O)CCC(C)(C)[C@@H]3[C@H](O)[C@H](OC(C)=O)[C@@]2(C)O1 [forskolin]
[1]; 10 μM, n = 7
  increase of IT by forskolin: 38.3 ± 2.1%

## corticotrophin-releasing factor: T-type channel inhibition induced by corticotrophin-releasing factor (SEEPPISLDLTFHLLREVLEMARAEQLAQQAHSNRKLMEII; ends and bridges not checked; UniProt P06850 154-194, looked up)
T-type channels; MN9D dopaminergic cells, prevented by PKC inhibitors, ref [59]
  T-type channel inhibition: T-type channel inhibition

## COc1ccc2c(c1)CC[C@@H]1[C@@H]2CC[C@]2(C)[C@@H](NCCCCCCN3C(=O)C=CC3=O)CC[C@@H]12 [U73122]
[1]; pretreatment 3 μM U73122 (legend: 1 μM), 100 nM Nmb, n = 8
  Nmb-induced increase in IT after U73122: 31.8 ± 4.2%

## cholera toxin
[1]
  Nmb-induced increase in IT after cholera toxin (Gs): 33.5 ± 2.9%

## QEHAQEPERQYMHIGTMVEFAYALVGK [Gβγ antagonist QEHA peptide]
[1]; dialysis 10 μM QEHA, 100 nM Nmb, n = 6
  Nmb-induced increase in IT with QEHA: 3.2 ± 2.5%

## insulin-like growth factor
T-type channels
  current density of IT: significantly increases the current density

## [Cl][Ni][Cl] [NiCl2]
Small TG neurons; preincubation 50 µM NiCl2, 100 nM Nmb, n = 9
  effect on Nmb-induced decrease in AP threshold: completely prevented
Small TG neurons; pretreatment KT-5720 1 µM (n = 12) or NiCl2 50 μM (n = 11), 100 nM Nmb
  effect on Nmb-mediated increase in AP firing rate / hyperexcitability: completely abolish
[1]; 50 μM, -110 mV Vh to -40 mV, 22-23 °C, n = 5
  decrease of the remaining inward current (IT): 79.2%
[1]; 0.5 mM NiCl2 added at end of recording after 100 nM Nmb
  inhibition of IT at the end of recording after Nmb: almost abrogated the IT
[1]; n = 5
  inhibition of IT: almost completely abolished
[1]; n = 5, listed as Ni^2+
  inhibition of IT: completely blocked IT

## Nc1nc2c(ncn2[C@@H]2O[C@H](COP(=O)(O)OP(O)(O)=S)[C@@H](O)[C@H]2O)c(=O)[nH]1 [GDP-β-S]
[1]; 1 mM intracellular GDP-β-S, 100 nM Nmb, n = 6
  Nmb-induced increase in IT with GDP-β-S: 2.3 ± 2.7%

## PKC 19-36: a pseudosubstrate peptide inhibitor of PKC (RFARKGALRQKNVHEVKD; UniProt P17252 19-36, looked up, fragment)
Cav3.2 (α1H); dialysis 10 μM PKC 19-36, 100 nM Nmb, n = 9
  Nmb-induced increase of Cav3.2 currents with PKC 19-36: 30.8 ± 2.3%
[1]; 10 μM PKC 19-36, 5 μM PMA, n = 5
  effect on PMA-induced increase in IT: abrogated the increase in IT
[1]; dialysis 10 µM PKC 19-36, 100 nM Nmb, n = 7
  Nmb-induced increase in IT with PKC 19-36: 31.5 ± 3.5%

## NCCc1ccc(O)c(O)c1 [dopamine]
T-type channels
  IT inhibition: IT inhibition

## CCCCCCCCCCCCCC(=O)O[C@@H]1[C@@H](C)[C@@]2(O)[C@@H](C=C(CO)C[C@]3(O)C(=O)C(C)=C[C@@H]23)[C@@H]2C(C)(C)[C@]12OC(C)=O [PMA, phorbol 12-myristate 13-acetate]
[1]; 5 μM, n = 7
  effect of PMA on IT: increase in IT

## angiotensin-II: angiotensin-II in neonatal cardiomyocytes (DRVYIHPF; Angiotensin-2; UniProt P01019 25-32, looked up)
T-type channels
  current density of IT: significantly increases the current density

## c1cc(-c2cnn3cc(-c4ccc(OCCN5CCCCC5)cc4)cnc23)ccn1 [compound C]
Cav3.2 (α1H); pretreatment 10 µM compound C, 100 nM Nmb, n = 8
  Nmb-induced increase of Cav3.2 currents after compound C: 1.4 ± 2.9%
PKA
  effect on Nmb-induced increase in PKA activity: abrogated
[1]; preincubation 10 µM compound C, 100 nM Nmb, n = 7
  Nmb-induced increase in IT after compound C: 2.6 ± 2.8%
